# Patent US11618894B2, “Bacteria engineered to reduce hyperphenylalaninemia” (Synlogic Operating Company, Inc., priority 2015, dated 2023)
# Tests used:
# [1] = Kinetics of phenylalanine in the enterocirculation model; assay type: in vivo, PKU (enu2) mice; details: subcutaneous 0.1 mg/g phenylalanine
# Experimental: To characterize the phenylalanine enterocirculation model, first the kinetics of serum levels of phenylalanine post phenylalanine challenger were assessed.
# On day −6, PKU (enu2) mice were placed on phenylalanine-free chow and water (+)Phe (0.5 g/L)
# On day 1, animals were bled to get T=0 (pre Phe challenge), and animals were randomized into two groups based on phenylalanine levels measured. The first treatment group (n=15) included mice for use for the 2, 6 and 24 hour post phenylalanine challenge time points; Group 2 (n=15) included mice for the 4 and 8 hour post phenylalanine challenge time points.
# Mice were pre-weighed to obtain the average weight for each group. Phenylalanine was dosed at a concentration equal to average group weight. Animals were dosed subcutaneously with 0.1 mg/g phenylalanine. In Group 1, animals were bled at 2, 6 and 24 h post Phe challenge. In Group 2, animals were bled at 4 and 8 h post Phe challenge. Whisker plots in FIG. 38A and FIG. 38B show distribution of mouse blood phenylalanine levels (both overall phenylalanine levels (FIG. 38A) and change in phenylalanine levels from T0 (FIG. 38B). Phenylalanine levels were stably elevated over at least a 6 hour period. […]
# On day −6, PKU mice were placed on phenylalanine-free chow and water (+)Phe (0.5 g/L). […] Animals were randomized into three treatment groups based on phenylalanine levels measured. […]
# [2] = Turnover of orally gavaged TCA into hippuric acid, recovery in urine; assay type: in vivo, Pah ENU2/2 mice
# Experimental: To determine whether hippuric acid detection in the urine is suitable as a measure for in vivo cell activity and a potential biomarker, the extent of turnover of TCA into hippuric acid was assessed by oral gavage of various concentrations of TCA in PKU mice and subsequent measurement of TCA and hippuric acid by LC/MS.
# Various TCA concentrations were administered by oral gavage.
# Urine and feces were transferred to appropriate tubes and store samples on ice until processed for MS analysis.
# Next, the kinetics of conversion of TCA to hippuric acid was assessed in a time course post pure TCA oral gavage. […] TCA concentrations were administered by oral gavage. […] Urine was transferred to appropriate tubes and store samples on ice until processed for MS analysis.
# hippurate = test: Kinetics of hippurate recovery in urine, gavage of live cells vs pure TCA; assay type: in vivo, mice
# Description: FIG. 56 depicts a graph showing hippurate recovery in urine, and comparing kinetics of the generation of hippuric acid from phenylalanine through the gavage of live cells to the generation of hippuric acid derived from pure TCA gavage.
# [3] = Oral gavage of TCA in PKU mice, recovery of TCA and hippuric acid in urine, feces and blood
# Experimental: Urine, feces, and blood were collected at 4 hours post gavage and analyzed for TCA and its major breakdown product, hippuric acid.
# Animals were transferred to metabolic cages (3 mice per cage, 2 cages per group) and urine samples were collected at 1, 2, 3, 4, 5, 6 hours post TCA dose.
# [4] = oral gavage 0.0125, 0.025, 0.05 or 0.1 mg/g TCA, 4 hours after gavage
compound,measurement,setting,value
"N[C@@H](Cc1ccccc1)C(=O)O [Phenylalanine, phenylalanine]",period over which blood phenylalanine levels were stably elevated,[1],≥ 6 h
"O=C(O)/C=C/c1ccccc1 [TCA, Trans-cinnamic acid]",recovery of TCA in the form of hippurate in the urine,[2]; [4],nearly full recovery
same,TCA and hippurate detected in blood and feces,"[2]; oral gavage of TCA, 4 h, data not shown",Insignificant amounts
same,time of rapid decrease in hippurate recovery in urine post collection start,hippurate,≤ 15 min
same,recovery of TCA in the form of hippurate in urine,[3]; [4],nearly full recovery
same,TCA and hippurate in blood and feces,"[3]; oral gavage 0.0125-0.1 mg/g TCA, 4 hours post gavage",Insignificant amounts
